Activity calls are given as the source filed them. Rule as the data show it, for most assays here: actives have a measured EC50 and inactives only a lower limit.

Data on 34 compounds can be found in ChEMBL document CHEMBL1201862, “PubChem BioAssay data set” (2004).

For assay [1], the target named is T1, Heat shock factor protein 1 (Mus musculus, UniProt P38532).
T1 sequence (P38532 whole entry): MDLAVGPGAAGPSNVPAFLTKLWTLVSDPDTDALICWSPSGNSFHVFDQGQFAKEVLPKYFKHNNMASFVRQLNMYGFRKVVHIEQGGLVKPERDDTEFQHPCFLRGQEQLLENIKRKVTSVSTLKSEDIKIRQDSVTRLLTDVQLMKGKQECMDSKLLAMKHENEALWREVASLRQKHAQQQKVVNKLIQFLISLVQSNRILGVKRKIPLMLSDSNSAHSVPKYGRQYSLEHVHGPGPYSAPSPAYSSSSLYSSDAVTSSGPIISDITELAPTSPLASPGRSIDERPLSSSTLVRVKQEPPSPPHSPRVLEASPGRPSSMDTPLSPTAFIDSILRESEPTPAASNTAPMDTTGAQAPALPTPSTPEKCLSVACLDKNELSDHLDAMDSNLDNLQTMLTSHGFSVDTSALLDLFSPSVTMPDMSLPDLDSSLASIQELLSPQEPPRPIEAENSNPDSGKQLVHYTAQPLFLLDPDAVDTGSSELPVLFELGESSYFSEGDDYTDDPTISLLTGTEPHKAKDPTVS
In words: enhancement of HSF1-driven luciferase signal – cell-based, NIH3T3, luminescence, dose retest, confirmation (AID 435004).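 Also: stress induced by proteasome inhibitor MG132 added 30 min after compound; luciferase reporter driven by HSF1 response element in NIH3T3 cells; actives raise luminescence as potentiators of the MG132 stress response.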 The class given is functional.

The target in assay [2] is T2, Corticotropin-releasing factor receptor 2/Corticotropin-releasing factor-binding protein (Homo sapiens, UniProt P24387+Q13324).
T2 sequence (Q13324 whole entry): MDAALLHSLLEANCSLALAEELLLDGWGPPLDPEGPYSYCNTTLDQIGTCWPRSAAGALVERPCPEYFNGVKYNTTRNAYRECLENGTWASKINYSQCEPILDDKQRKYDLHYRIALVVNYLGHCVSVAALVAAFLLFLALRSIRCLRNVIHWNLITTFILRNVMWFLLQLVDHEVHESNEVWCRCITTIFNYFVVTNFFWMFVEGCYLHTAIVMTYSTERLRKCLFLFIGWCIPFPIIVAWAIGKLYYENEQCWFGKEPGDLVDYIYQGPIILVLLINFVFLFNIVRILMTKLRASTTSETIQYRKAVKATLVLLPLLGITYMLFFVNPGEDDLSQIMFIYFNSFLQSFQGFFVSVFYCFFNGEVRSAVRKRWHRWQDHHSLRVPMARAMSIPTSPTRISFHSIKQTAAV
T2 sequence (P24387 whole entry): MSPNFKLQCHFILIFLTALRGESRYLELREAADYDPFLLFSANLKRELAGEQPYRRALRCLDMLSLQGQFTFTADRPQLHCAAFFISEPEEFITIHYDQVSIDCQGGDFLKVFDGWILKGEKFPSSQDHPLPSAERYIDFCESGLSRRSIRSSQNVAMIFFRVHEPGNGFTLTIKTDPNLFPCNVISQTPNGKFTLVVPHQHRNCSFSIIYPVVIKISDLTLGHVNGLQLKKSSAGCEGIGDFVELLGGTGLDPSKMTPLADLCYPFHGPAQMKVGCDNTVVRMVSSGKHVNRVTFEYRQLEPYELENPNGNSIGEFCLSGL
In words: activators of CRF receptor 2 with binding protein – uHTS hits, confirmation (AID 602473). The class given is functional. As to conditions: read-out: EC50_Mean.

For assay [3], the target named is T2, Corticotropin-releasing factor receptor 2/Corticotropin-releasing factor-binding protein. Nature of the assay: Dose Response confirmation of uHTS hits for small molecule antagonists of the CRF-binding protein and CRF-R2 receptor complex. The format is functional. As to conditions: read-out: IC50_Mean.
Assay [4] concerns the target T3, Protein RecA (Mycobacterium tuberculosis, UniProt P9WHJ3).
T3 sequence (P9WHJ3 whole entry): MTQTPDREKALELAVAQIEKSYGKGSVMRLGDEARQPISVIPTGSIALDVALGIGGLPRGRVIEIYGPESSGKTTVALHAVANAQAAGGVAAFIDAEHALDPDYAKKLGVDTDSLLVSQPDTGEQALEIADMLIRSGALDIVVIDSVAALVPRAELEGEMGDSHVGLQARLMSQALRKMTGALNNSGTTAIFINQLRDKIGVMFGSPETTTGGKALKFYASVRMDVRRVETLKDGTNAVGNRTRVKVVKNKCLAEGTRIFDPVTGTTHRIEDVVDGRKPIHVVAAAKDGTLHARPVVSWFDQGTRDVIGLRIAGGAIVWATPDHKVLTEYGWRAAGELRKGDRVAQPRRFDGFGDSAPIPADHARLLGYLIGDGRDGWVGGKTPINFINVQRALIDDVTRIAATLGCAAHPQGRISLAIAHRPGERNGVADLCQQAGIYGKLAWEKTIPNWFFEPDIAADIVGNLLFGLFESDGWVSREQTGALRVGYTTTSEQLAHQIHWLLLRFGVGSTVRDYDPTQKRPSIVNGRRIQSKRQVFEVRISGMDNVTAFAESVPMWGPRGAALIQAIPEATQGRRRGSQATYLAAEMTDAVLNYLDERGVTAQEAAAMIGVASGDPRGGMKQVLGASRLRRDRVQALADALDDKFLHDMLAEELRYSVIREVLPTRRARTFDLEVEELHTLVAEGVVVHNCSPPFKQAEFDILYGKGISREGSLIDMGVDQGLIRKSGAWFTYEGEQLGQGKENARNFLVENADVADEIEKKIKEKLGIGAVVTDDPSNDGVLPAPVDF
In words: Fluorescence Cell-Free Homogeneous Dose Retest to Identify Inhibitors of RecA-Intein Splicing Activity. [Related pubchem assays (depositor defined):AID2097, AID2223, AID489010, AID492950]. The format is functional.

In assay [5] the target is T4, Replicative DNA helicase DnaB (Mycobacterium tuberculosis, UniProt P9WMR3).
T4 sequence (P9WMR3 whole entry): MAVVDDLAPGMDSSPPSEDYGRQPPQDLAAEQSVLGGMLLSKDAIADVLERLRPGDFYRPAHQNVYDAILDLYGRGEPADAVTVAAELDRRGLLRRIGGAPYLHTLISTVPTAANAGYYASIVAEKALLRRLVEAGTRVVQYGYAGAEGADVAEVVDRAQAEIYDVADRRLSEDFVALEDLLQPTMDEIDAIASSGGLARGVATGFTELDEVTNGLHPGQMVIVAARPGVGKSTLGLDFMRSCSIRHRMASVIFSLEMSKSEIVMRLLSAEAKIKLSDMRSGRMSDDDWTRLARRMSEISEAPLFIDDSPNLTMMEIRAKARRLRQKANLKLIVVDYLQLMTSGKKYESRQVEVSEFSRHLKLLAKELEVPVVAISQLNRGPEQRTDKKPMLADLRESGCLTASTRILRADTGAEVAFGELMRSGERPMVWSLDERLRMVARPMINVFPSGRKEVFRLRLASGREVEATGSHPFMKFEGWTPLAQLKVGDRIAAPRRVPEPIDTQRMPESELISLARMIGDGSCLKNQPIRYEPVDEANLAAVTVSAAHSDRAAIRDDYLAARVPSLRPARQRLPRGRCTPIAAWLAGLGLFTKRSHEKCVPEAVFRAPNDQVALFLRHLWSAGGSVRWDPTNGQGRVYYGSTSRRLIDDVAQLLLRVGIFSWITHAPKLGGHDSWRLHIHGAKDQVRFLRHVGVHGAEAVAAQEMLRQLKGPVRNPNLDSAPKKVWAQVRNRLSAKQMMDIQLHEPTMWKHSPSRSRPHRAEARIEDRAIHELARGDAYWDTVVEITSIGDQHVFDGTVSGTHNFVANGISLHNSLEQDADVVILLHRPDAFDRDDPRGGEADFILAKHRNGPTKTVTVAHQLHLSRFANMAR
In words: DnaB intein splicing inhibitors, dose response, biochemical, cell-free fluorescence (AID 449749). The format is functional.

Assay [6] relates to INS1. Nature of the assay: INS-1E survival protection against cytokine death – cell-based, luminescence, retest, dose response (AID 449756).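 Also: cell death triggered by IL-1 beta plus TNF-alpha plus IFN-gamma mixture; protective hits raise ATP signal compared with cytokine alone wells.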 The format is functional. As to conditions: Rattus norvegicus.
The subject of assay [7] is Streptococcus. In words: GAS UMAA2166 growth inhibition – luminescence, BacTiterGlo, counter-screen for streptokinase expression inhibitor project, dose response (AID 1915).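 Also: potency for reduction of bacterial viability or growth.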 The format is functional, organism-based. A general note: Counterscreens check selectivity or assay interference.
Assay [8] relates to Streptococcus sp. 'group A'. In words: Streptococcus pyogenes SK(-)GAS viability under kanamycin – luminescence, BacTiterGlo, confirmation, counter-screen for streptokinase expression inhibitor project, dose response (AID 1900). The class given is functional, organism-based.
Assay [9] is described as follows: Trypanosoma cruzi growth suppression in host cells – NIH3T3 host cells, beta-gal luminescence, confirmation (AID 2044).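 Also: intracellular parasites grown in NIH/3T3 mouse fibroblasts as host cells; luminescent beta-galactosidase reporter signal from transgenic T. cruzi replicating inside host cells; inhibitors lower the luminescence signal.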 The class given is functional, cell-based.
The nature of assay [10]: NIH3T3 cell viability loss – ATP luminescence, mouse fibroblasts, counter-screen, dose response (AID 2010).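 Also: cells exposed to compound for about 90 hours before reading.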 The class given is functional, cell-based.

`O=C(NC(=S)N1CCN(C/C=C/c2ccccc2)CC1)c1ccc(Cl)nc1`: the EC50 in assay [1] was > 260 µM (inactive).

For the compound `CCOC(=O)NNC(=O)c1[nH]c2ccc(Br)cc2c1-c1ccccc1`, in assay [2], the EC50 was > 53 µM (inactive). Moreover, the IC50 in assay [3] is > 47.1 µM (inactive).

Turning to `Fc1ccc(C2NC(S)=NC3=C2N2CCC3CC2)cc1` (stereo not drawn), the EC50 in assay [1] was > 260 µM (inactive). On the same count and under the same terms, for `CC(NC(=O)CCCN1C(=O)c2ccccc2C1=O)c1ccc2c(c1)CCCC2` (stereo not drawn) the value was > 260 µM (inactive). On the same count and under the same terms, the value for `O=c1c2cc(N3CCOCC3)ccc2[nH]c(=S)n1Cc1ccccn1` was > 260 µM (inactive). As for `COc1cc(CC(=O)NCc2cccs2)cc(OC)c1OC`, the EC50 in assay [2] was > 53 µM (inactive). For the same compound, the IC50 in assay [3] is > 47.1 µM (inactive). Broadly, the AC50 is the concentration giving half of the maximal activity seen. As to `O=c1c2ccccc2nc2n1CCS2(=O)=O`, the EC50 in [4] was 12.9 µM (active). For the same compound, in assay [5], the concentration at half-maximal activity (AC50) was 37.2 µM (active).

As to `CC(C)c1n[nH]c2c1C(Cc1ccccc1)C(C#N)=C(N)O2` (stereo not drawn), the EC50 in assay [4] was 8.67 µM (active). Further, the AC50 in assay [5] is 38.7 µM (active).

`Cc1n[nH]c2c1C1(CCN(C(=O)OCc3ccccc3)CC1)C(C#N)=C(N)O2`: in assay [4], the EC50 was 1.59 µM (active). Moreover, the AC50 in assay [5] was 13.5 µM (active).

Turning to `O=[N+]([O-])c1ccc(Oc2cccc(Br)c2)c2ccncc12`, the EC50 in assay [4] is 1.17 µM (active). Moreover, the AC50 in [5] was > 380 µM (inactive). With `Cc1ccccc1Cn1ccc(=NCc2ccccc2)cc1`, in assay [6], the AC50 is > 260 µM (inactive). As to `Cn1cnc([N+](=O)[O-])c1Sc1nnc(-c2cccnc2)n1C`, the EC50 in [4] was 13.3 µM (active). Moreover, the AC50 in [5] was 38.1 µM (active). On to `Cc1oc(-c2ccccc2Cl)nc1CN1C(=O)CN=C(c2ccccc2)c2ccccc21`, for which the EC50 in assay [1] was > 260 µM (inactive). Same read-out and setting: for `COc1cc(/C=C/C(=O)OCc2c(C)noc2C)ccc1OC(F)F` the value was > 260 µM (inactive). Turning to `COc1ccc(CN(C)C(=O)c2ccc(NS(=O)(=O)c3ccc(F)cc3)cc2)c(OC)c1OC`, the AC50 in assay [6] was > 260 µM (inactive). As for `N=C(CN1CCCCC1)NS(=O)(=O)c1cc(Cl)cc(Cl)c1`, in assay [2], the EC50 is > 53 µM (inactive). In assay [3], the IC50 is > 47.1 µM (inactive). Take `COc1ccc(CCNc2oc(-c3ccccc3OC)nc2C#N)cc1`: the EC50 in assay [1] is > 260 µM (inactive). `O=C(Nc1cc([N+](=O)[O-])ccc1O)c1cccc(NC(=O)c2ccco2)c1`: the EC50 was 6.8 µM (active) in assay [7] and 5.58 µM (active) in assay [8]. For `Cc1cc(C)cc(NC(=O)C2CCCN(c3nccc(C)n3)C2)c1` (stereo not drawn), the EC50 in assay [2] is > 53 µM (inactive). In addition, in [3], the IC50 is > 47.1 µM (inactive). The corresponding values for `Cn1c(-c2ccc(-c3ccccc3)cc2)c[nH]c1=S` are > 53 µM (inactive) and > 47.1 µM (inactive). For `COc1ccc(Cl)cc1NC(=O)c1ccoc1C`, in that order: > 53 µM (inactive) and > 47.1 µM (inactive). With `Cc1cc2[nH]ncc2cc1NC(=S)NC(=O)c1ccccc1`, in assay [4], the EC50 is > 380 µM (inactive). Moreover, the AC50 in assay [5] was 178 µM (active). In the case of `Nc1ccc2nc(N3CCOCC3)sc2c1`, the EC50 in [9] was 1.96 µM (active); in [10], 5.16 µM (active); in [4] it was 23.7 µM (active). For the same compound, the AC50 in [5] is 93.7 µM (active). As for `COC(=O)Nc1ccc(S(=O)(=O)N2CCC(C(=O)N3CCCC(C)C3)CC2)cc1` (stereo not drawn), the EC50 in [1] is > 260 µM (inactive). The same measure, in the same setting: for `Cc1ccc(N2C(=O)SC(N(CC(=O)O)c3ccc(C)cc3)C2=O)cc1` (stereo not drawn) the value was > 260 µM (inactive); for `COc1cc(CNC2CCCC2)cc(OC)c1`, > 260 µM (inactive).

As for `CN(C)C(=O)c1ccc(=O)n(Cc2ccc(Cl)cc2Cl)c1`, the EC50 in assay [1] was > 260 µM (inactive). The same measure, in the same setting: the value for `O=C(O)c1ccc(N(Cc2ccccc2)S(=O)(=O)c2ccccc2)cc1` was > 260 µM (inactive); that for `NCCCCCc1nnc(SC/C=C/c2ccccc2)o1` was > 260 µM (inactive). `CCC1=Nc2cc(C(=O)NCCN3CCCC3)ccc2Sc2ccccc21`: the EC50 in [4] was > 380 µM (inactive). In [5], the AC50 was > 380 µM (inactive). Turning to `O=c1oc(CCO)cc2ccc(Br)cc12`, in assay [2], the EC50 is > 53 µM (inactive). In addition, in assay [3], the IC50 was > 47.1 µM (inactive). Turning to `COc1cccc(N(CC(=O)N2CCc3ccccc3C2)S(C)(=O)=O)c1`, the EC50 in assay [1] is > 260 µM (inactive). As to `CC1=NNC(=O)C1C(c1ccc(F)cc1)C(C#N)C#N` (stereo not drawn), the EC50 in assay [4] was 2.83 µM (active). Also, the AC50 in [5] is 7.09 µM (active).

For the compound `Cn1cccc1/C=N/NC(=O)Cc1cccs1`, in assay [6], the AC50 is > 260 µM (inactive).
